# Molecular target: T1, FAK enzyme (6 His tagged kinase domain, GenBank NP—722560) (Homo sapiens, UniProt Q05397)
# T1 construct: 6 His; made in house; host or cells: insect cell culture infected with baculovirus
# Assay: In vitro enzyme assay (a): sandwich ELISA of FAK tyrosine kinase activity on polyGAT peptide, TMB colorimetric endpoint
# Format: biochemical
# Settings: in vitro Enzyme Assay test (a); ATP at Km; geometric mean of n > 1 measurements, values marked * tested once
# Procedure: (a) In Vitro Enzyme Assay
# A sandwich ELISA assay with a 3,3′,5,5′-tetramethyl benzidine (TMB) colorimetric endpoint was used in order to determine the level of effect of selected compounds on inhibition of FAK protein tyrosine kinase enzyme activity. A synthetic tyrosine containing peptide is coated onto a plastic surface, the level of phosphorylation of these tyrosine residues by the kinase enzyme in the presence of inhibitors is measured using an antibody that binds specifically to phosphorylated tyrosine residues. The amount of antibody bound to substrate is proportional to the level of enzyme catalysis.
# Assay Protocol to Identify Inhibitors of Focal Adhesion Kinase (FAK).
# A PlateMate Plus™ 384 automated liquid handling unit with a 100 μl disposable tip head was used to make all the non compound reagent additions and a Tecan 384PW plate washer with 384 head was used for all wash steps. Initially Matrix 384 well polystyrene plates (Cat #:4311) were coated with 40 μl/well of a 0.0375 mg/ml solution of synthetic poly peptide (polyGAT, Sigma Cat #:P3899) dissolved in phosphate buffered saline (PBS). Plates were stored overnight at 4° C. Immediately before use the coating solution was aspirated out and each well washed with 2×100 μl of PBS+0.05% Tween 20. To remove surplus phosphate, the wells were then washed with 2×100 μl 50 mM HEPES buffer pH 7.4. Plates were blotted dry before the addition of compounds. Compounds were tested over a 12 point dose range, a Labcyte Echo 550 was used to dispense compounds in nl volumes and back fill with DMSO. The final concentration of compound in the assay was dependent on the starting concentration of compound. For a 10 mM stock compound the final assay dose ranged from 100 μM down to […]. Control wells containing 120 nl DMSO (Max) or 120 nl of 10 mM staurosporine (LC Laboratories, Boston, USA Cat #: S-9300) (Min) were included in each plate. 10 ul of 5% dimethyl sulfoxide v/v (DMSO, Fisher Scientific) was added to each well immediately prior to addition of 10 μl of a co-factor solution containing 80 mM MgCl2 (Sigma Cat #: M1028); 80 mM MnCl2 (Sigma Cat #: M1787); ATP at a concentration calculated to enable the initial reaction velocity to progress at half the maximum velocity (Km for ATP) (Sigma Cat #:A7699). A final addition of 20 μl of enzyme solution containing 100 mM HEPES pH7.4; 0.2 mM sodium vanadate (Sigma Cat #:S6508); 0.2 g/l bovine serum albumin (BSA, Sigma Cat #: A7888); 0.2 mM dithioreitol (Sigma Cat #: 5545); 0.1% Triton X100 (Sigma Cat #:X100); FAK enzyme (20 μl/ml) was made to each well to start the assay running FAK enzyme was generated from an insect culture infected with baculo virus containing the DNA sequence encoding the 6 His tagged kinase domain (GenBank NP_722560).
# Plates were left at room temperature for 25 minutes before 10 μl of 500 mM ethylenediaminetetraacetic acid (EDTA) was added to stop the assay and the wells were immediately washed 3×100 μl with PBS+0.05% Tween 20. A 4G10 antibody (Millipore Cat #: 16-105; 16-184) with a directly conjugated horse radish peroxidase (HRP) was used to detect the phosphorylation of the substrate by the FAK. 40 μl of PBS+0.05% Tween 20 containing 0.5% BSA and 0.1 μl/ml antibody was added to each well and left for 1 hour at room temperature to allow the antibody to bind. After this period the wells were again washed with 3×100 μl of PBS+0.05% Tween 20. TMB (Sigma Cat #: T2885) was used as a substrate for the HRP. Phosphate-citrate buffer was made up using capsules provided by Sigma (Cat #: P4922) following the manufacturers guidelines. TMB was dissolved at a concentration of 1 mg/ml in DMSO and let down to a final concentration of 0.05 mg/ml with the phosphor-citrate buffer. 40 μl of the TMB solution was added to each assay well and left for 30 minutes for the blue colour to develop. […]
# T1 sequence (Q05397 422-680 limits assumed): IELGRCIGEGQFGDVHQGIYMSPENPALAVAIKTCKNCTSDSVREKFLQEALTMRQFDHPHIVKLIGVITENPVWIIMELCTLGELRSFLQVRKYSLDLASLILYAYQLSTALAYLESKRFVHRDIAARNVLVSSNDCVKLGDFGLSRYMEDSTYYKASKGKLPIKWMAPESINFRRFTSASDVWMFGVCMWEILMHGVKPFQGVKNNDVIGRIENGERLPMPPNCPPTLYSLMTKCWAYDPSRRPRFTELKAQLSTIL
row,Compound,IC50 [µM]
1,"CNC(=O)c1ccccc1Nc1cc(Nc2cc(C3CC3)[nH]n2)ncc1Cl [Example 3.17, 2-[[5-chloro-2-[(5-cyclopropyl-1H-pyrazol-3-yl)amino]-4-pyridyl]amino]-N-methyl-benzamide]",0.093
2,"CNC(=O)c1ccccc1Nc1cc(Nc2cn(C)cn2)ncc1Cl [Example 3.18, 2-[[5-chloro-2-[(1-methylimidazol-4-yl)amino]-4-pyridyl]amino]-N-methyl-benzamide]",0.275
3,"CNC(=O)c1ccccc1Nc1cc(Nc2cnn(C3CCNCC3)c2)ncc1Cl [Example 3.19, 2-[[5-Chloro-2-[[1-(4-piperidyl)pyrazol-4-yl]amino]-4-pyridyl]amino]-N-methyl-benzamide]",0.686
4,"CON(C)C(=O)c1ccccc1Nc1cc(Nc2cnn(C3CCN(C)CC3)c2)ncc1Cl [Example 3.20, 2-[[5-Chloro-2-[[1-(1-methyl-4-piperidyl)pyrazol-4-yl]amino]-4-pyridyl]amino]-N-methoxy-N-methyl-benzamide]",1.23
5,"CON(C)C(=O)c1ccccc1Nc1cc(Nc2cn(C)nc2C)ncc1Cl [Example 3.21, 2-[[5-chloro-2-[(1,3-dimethylpyrazol-4-yl)amino]-4-pyridyl]amino]-N-methoxy-N-methyl-benzamide]",0.324
6,"Cc1nn(C)cc1Nc1cc(Nc2cccc3c2C(=O)N(C)CCO3)c(Cl)cn1 [Example 3.22, 6-[[5-Chloro-2-[(1,3-dimethylpyrazol-4-yl)amino]-4-pyridyl]amino]-4-methyl-2,3-dihydro-1,4-benzoxazepin-5-one]",0.025
7,"CN1CCc2cccc(Nc3cc(Nc4cnn(CC(=O)N5CCCC5)c4)ncc3Cl)c2C1=O [Example 3.23, 8-[[5-Chloro-2-[[1-(2-oxo-2-pyrrolidin-1-yl-ethyl)pyrazol-4-yl]amino]-4-pyridyl]amino]-2-methyl-3,4-dihydroisoquinolin-1-one]",0.02
8,"COCCNC(=O)Cn1cc(Nc2cc(Nc3cccc4c3C(=O)N(C)CC4)c(Cl)cn2)cn1 [Example 3.24, 2-[4-[[5-chloro-4-[(2-methyl-1-oxo-3,4-dihydroisoquinolin-8-yl)amino]-2-pyridyl]amino]pyrazol-1-yl]-N-(2-methoxyethyl)acetamide]",0.018
9,"COCCN(C)C(=O)Cn1cc(Nc2cc(Nc3cccc4c3C(=O)N(C)CC4)c(Cl)cn2)cn1 [Example 3.25, 2-[4-[[5-chloro-4-[(2-methyl-1-oxo-3,4-dihydroisoquinolin-8-yl)amino]-2-pyridyl]amino]pyrazol-1-yl]-N-(2-methoxyethyl)-N-methyl-acetamide]",0.027
10,"CN(C)CCNC(=O)Cn1cc(Nc2cc(Nc3cccc4c3C(=O)N(C)CC4)c(Cl)cn2)cn1 [Example 3.26, 2-[4-[[5-chloro-4-[(2-methyl-1-oxo-3,4-dihydroisoquinolin-8-yl)amino]-2-pyridyl]amino]pyrazol-1-yl]-N-(2-dimethylaminoethyl)acetamide]",0.038
11,"CN1CCc2cccc(Nc3cc(Nc4cnn(CC(=O)N5CCOCC5)c4)ncc3Cl)c2C1=O [Example 3.27, 8-[[5-chloro-2-[[1-(2-morpholino-2-oxo-ethyl)pyrazol-4-yl]amino]-4-pyridyl]amino]-2-methyl-3,4-dihydroisoquinolin-1-one]",0.011
12,"CN1CCc2cccc(Nc3cc(Nc4cnn(C)c4)ncc3Cl)c2C1=O [Example 3.28, 8-[[5-Chloro-2-[(1-methylpyrazol-4-yl)amino]-4-pyridyl]amino]-2-methyl-3,4-dihydroisoquinolin-1-one]",0.041
13,"CN1CCC(n2cc(Nc3cc(Nc4cccc5c4C(=O)N(C)CC5)c(Cl)cn3)cn2)CC1 [Example 3.29, 8-[[5-chloro-2-[[1-(1-methyl-4-piperidyl)pyrazol-4-yl]amino]-4-pyridyl]amino]-2-methyl-3,4-dihydroisoquinolin-1-one]",0.118
14,"Cc1cc(Nc2cc(Nc3cccc4c3C(=O)N(C)CC4)c(Cl)cn2)nn1C [Example 3.30, 8-[[5-chloro-2-[(1,5-dimethylpyrazol-3-yl)amino]-4-pyridyl]amino]-2-methyl-3,4-dihydroisoquinolin-1-one]",0.059
15,"CC(=O)N1CCC(n2cc(Nc3cc(Nc4cccc5c4C(=O)N(C)CC5)c(Cl)cn3)cn2)CC1 [Example 3.31, 8-[[2-[[1-(1-acetyl-4-piperidyl)pyrazol-4-yl]amino]-5-chloro-4-pyridyl]amino]-2-methyl-3,4-dihydroisoquinolin-1-one]",0.171
16,"Cc1nn(C)cc1Nc1cc(Nc2cccc3c2C(=O)N(C)CC3)c(Cl)cn1 [Example 3.32, 8-[[5-chloro-2-[(1,3-dimethylpyrazol-4-yl)amino]-4-pyridyl]amino]-2-methyl-3,4-dihydroisoquinolin-1-one]",0.009
17,"CN1CCc2cccc(Nc3cc(Nc4cnn(C5CCNCC5)c4)ncc3Cl)c2C1=O [Example 3.33, 8-[[5-Chloro-2-[[1-(4-piperidyl)pyrazol-4-yl]amino]-4-pyridyl]amino]-2-methyl-3,4-dihydroisoquinolin-1-one]",0.191
18,"CN1CCc2cccc(Nc3cc(Nc4cnn(C5CCCNC5)c4)ncc3Cl)c2C1=O (stereo not shown) [Example 3.34, 8-[[5-chloro-2-[[1-(3-piperidyl)pyrazol-4-yl]amino]-4-pyridyl]amino]-2-methyl-3,4-dihydroisoquinolin-1-one]",0.16
19,"Cc1nn(C)cc1Nc1cc(Nc2cccc3c2C(=O)N(C)C3)c(Cl)cn1 [Example 3.35, 7-[[5-Chloro-2-[(1,3-dimethylpyrazol-4-yl)amino]-4-pyridyl]amino]-2-methyl-isoindolin-1-one]",0.036
20,"CNC(=O)c1cc(N2CCN(C)CC2)ccc1Nc1cc(Nc2cc(C)n(C)n2)ncc1Cl [Example 3.36, 2-[[5-Chloro-2-[(1,5-dimethylpyrazol-3-yl)amino]-4-pyridyl]amino]-N-methyl-5-(4-methylpiperazin-1-yl)benzamide]",0.249
21,"CNC(=O)c1cc(N2CCN(C)CC2)ccc1Nc1cc(Nc2cn(C)nc2C)ncc1Cl [Example 3.37, 2-[[5-chloro-2-[(1,3-dimethylpyrazol-4-yl)amino]-4-pyridyl]amino]-N-methyl-5-(4-methylpiperazin-1-yl)benzamide]",1.05
22,"Cc1nn(C)cc1Nc1cc(Nc2ccc(N3CCN(C(C)C)CC3)c3c2C(=O)N(C)C3)c(Cl)cn1 [Example 3.38, 7-[[5-Chloro-2-[(1,3-dimethylpyrazol-4-yl)amino]-4-pyridyl]amino]-4-(4-isopropylpiperazin-1-yl)-2-methyl-isoindolin-1-one]",0.036
23,"CNC(=O)c1cccc(F)c1Nc1cc(Nc2cn(C)nc2C)ncc1Cl [Example 3.39, 2-[[5-Chloro-2-[(1,3-dimethylpyrazol-4-yl)amino]-4-pyridyl]amino]-3-fluoro-N-methyl-benzamide]",0.055
24,"CNC(=O)c1c(F)cccc1Nc1cc(Nc2cn(C)nc2C)ncc1Cl [Example 3.40, 2-[[5-Chloro-2-[(1,3-dimethylpyrazol-4-yl)amino]-4-pyridyl]amino]-6-fluoro-N-methyl-benzamide]",0.122
25,"CNC(=O)c1cc(F)ccc1Nc1cc(Nc2cn(C)nc2C)ncc1Cl [Example 3.41, 2-[[5-chloro-2-[(1,3-dimethylpyrazol-4-yl)amino]-4-pyridyl]amino]-5-fluoro-N-methyl-benzamide]",0.087

# From patent US8569298B2, “Pyridine compounds” (Astrazeneca AB, priority 2008, dated 2013)
